From ChEMBL document CHEMBL1121978, “Ultra-short-acting beta-adrenergic receptor blocking agents. 2. (Aryloxy)propanolamines containing esters on the aryl function” (J Med Chem, 1982)
Activity calls are given as the source filed them. No cut-off for these calls is given here.

Key:
[1] = target: Beta-1 adrenergic receptor (Canis lupus familiaris) (UniProt P79148)
[2] = target: Beta-1 adrenergic receptor (Canis lupus familiaris) (UniProt P79148); remark: listed apart in the source
[3] = target: Beta-1 adrenergic receptor (Cavia porcellus) (UniProt B0FL73); assay: Cardioselectivity expressed as antilog of pA2 (atria)-pA2 (trachea).
[4] = target: Beta-1 adrenergic receptor (Cavia porcellus, UniProt B0FL73); assay: The compound was tested in vitro for its ability to block Beta-1 adrenergic receptor in guinea pig right atria preparation; settings: read-out: pA2 (converted)
[5] = target: Beta-1 adrenergic receptor (Cavia porcellus) (UniProt B0FL73)
Description: The compound was tested in vivo for its ability to block beta-1-adrenergic receptor in guinea pig right atria preparation at a duration of 3h

[6] = target: Beta-1 adrenergic receptor (Cavia porcellus) (UniProt B0FL73); assay: The compound was tested in vitro for its ability to block Beta-1 adrenergic receptor in guinea pig right atria preparation at 10e-5M; inactive

Chain of Beta-1 adrenergic receptor (Cavia porcellus) (B0FL73 1-467): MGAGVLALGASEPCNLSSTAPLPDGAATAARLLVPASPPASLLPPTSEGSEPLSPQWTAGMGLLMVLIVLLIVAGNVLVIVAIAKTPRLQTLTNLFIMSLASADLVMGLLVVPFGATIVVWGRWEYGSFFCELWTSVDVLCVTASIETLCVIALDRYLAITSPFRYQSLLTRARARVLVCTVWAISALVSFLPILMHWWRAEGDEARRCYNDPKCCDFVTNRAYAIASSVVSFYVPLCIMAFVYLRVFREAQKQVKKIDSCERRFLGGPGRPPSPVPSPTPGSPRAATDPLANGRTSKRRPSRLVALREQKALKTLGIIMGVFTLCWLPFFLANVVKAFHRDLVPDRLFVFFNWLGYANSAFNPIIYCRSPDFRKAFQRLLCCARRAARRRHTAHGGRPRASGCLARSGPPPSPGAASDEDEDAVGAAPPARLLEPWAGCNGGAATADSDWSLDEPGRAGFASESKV
Chain of Beta-1 adrenergic receptor (B0FL73 whole entry): as the sequence (B0FL73 1-467) above

Compound	In vivo duration [1] [min]	In vivo duration [2] [min]	other results
COC(=O)c1ccc(OCC(O)CNC(C)C)cc1 (stereo not drawn)	31		
COC(=O)CCc1ccc(OCC(O)CNCCc2ccc(OC)c(OC)c2)cc1 (stereo not drawn)		14	Cardio selectivity [3]: 20
COC(=O)CCc1ccc(OCC(O)CNCCCc2ccccc2)cc1 (stereo not drawn)			Cardio selectivity [3]: 20
COC(=O)c1ccccc1OCC(O)CNCCc1ccc(OC)c(OC)c1 (stereo not drawn)		30	
C=COC(=O)c1cccc(OCC(O)CNC(C)C)c1 (stereo not drawn)			Kb [4]: 126 nM; In vivo duration [5]: > 60 min
C=COC(=O)c1ccc(OCC(O)CNC(C)C)cc1 (stereo not drawn)			Kb [4]: 501 nM; Cardio selectivity [3]: 5
CC(C)NCC(O)COc1ccc(C(=O)O)cc1 (stereo not drawn)			pA2 [6]: inactive
COC(=O)CCc1ccc(OCC(O)CNC(C)C)cc1 (stereo not drawn)	12	12	
COC(=O)CCCc1ccc(OCC(O)CNC(C)C)cc1 (stereo not drawn)	40	> 60	Cardio selectivity [3]: 13
C=COC(=O)c1ccccc1OCC(O)CNC(C)C (stereo not drawn)			Kb [4]: 12.6 nM
COC(=O)c1ccc(OCC(O)CNC(C)(C)C)cc1 (stereo not drawn)	22		
CCOC(=O)CCc1ccc(OCC(O)CNC(C)C)cc1 (stereo not drawn)		43	Cardio selectivity [3]: 30
COC(=O)CCc1ccc(OCC(O)CNC(C)(C)C)cc1 (stereo not drawn)		15	
COC(=O)c1ccccc1OCC(O)CNC(C)(C)C (stereo not drawn)	12	22	

More lines, main results first:

In vivo duration [1] [min]	In vivo duration [2] [min]	Compound	other results
20	> 60	COC(=O)Cc1ccc(OCC(O)CNC(C)C)cc1 (stereo not drawn)	
	> 60	COC(=O)/C=C/c1ccc(OCC(O)CNC(C)C)cc1 (stereo not drawn)	Cardio selectivity [3]: 18
15	15	COC(=O)c1ccccc1OCC(O)CNC(C)C (stereo not drawn)	
	55	COC(=O)c1ccccc1OCC(O)CNC(C)(C)CO (stereo not drawn)	
61		CC(=O)Nc1ccc(OCC(O)CNC(C)C)cc1 (stereo not drawn)	
56		CCOC(=O)c1ccc(OCC(O)CNC(C)C)cc1 (stereo not drawn)	
	38	CCOC(=O)c1ccccc1OCC(O)CNC(C)(C)C (stereo not drawn)	
	29	COC(=O)CCc1ccccc1OCC(O)CNC(C)C (stereo not drawn)	
